The source made the active and inactive calls.
Experiments:
[1] = viability of PTEN-deleted HCT116 cells – cell-based, HCT116 PTEN knockout, dose response (AID 1047); assay type: functional;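 also: HCT116 colon tumor cells with PTEN knocked out; cells exposed to compound for 60 hours before readout; potency for loss of cell viability measured by luminescence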
[2] = viability of HCT116 lacking mutant beta-catenin – cell-based, human colon tumor, dose response (AID 1045); assay type: functional;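 also: HCT116 colon tumor cells with beta catenin knocked out; cells exposed to compound for 60 hours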
[3] = biological target: T1, Protein RecA (Mycobacterium tuberculosis, UniProt P9WHJ3); test: Fluorescence Cell-Free Homogeneous Dose Retest to Identify Inhibitors of RecA-Intein Splicing Activity. [Related pubchem assays (depositor defined):AID2097, AID2223, AID489010, AID492950]; assay type: functional
T1 sequence (P9WHJ3 whole entry): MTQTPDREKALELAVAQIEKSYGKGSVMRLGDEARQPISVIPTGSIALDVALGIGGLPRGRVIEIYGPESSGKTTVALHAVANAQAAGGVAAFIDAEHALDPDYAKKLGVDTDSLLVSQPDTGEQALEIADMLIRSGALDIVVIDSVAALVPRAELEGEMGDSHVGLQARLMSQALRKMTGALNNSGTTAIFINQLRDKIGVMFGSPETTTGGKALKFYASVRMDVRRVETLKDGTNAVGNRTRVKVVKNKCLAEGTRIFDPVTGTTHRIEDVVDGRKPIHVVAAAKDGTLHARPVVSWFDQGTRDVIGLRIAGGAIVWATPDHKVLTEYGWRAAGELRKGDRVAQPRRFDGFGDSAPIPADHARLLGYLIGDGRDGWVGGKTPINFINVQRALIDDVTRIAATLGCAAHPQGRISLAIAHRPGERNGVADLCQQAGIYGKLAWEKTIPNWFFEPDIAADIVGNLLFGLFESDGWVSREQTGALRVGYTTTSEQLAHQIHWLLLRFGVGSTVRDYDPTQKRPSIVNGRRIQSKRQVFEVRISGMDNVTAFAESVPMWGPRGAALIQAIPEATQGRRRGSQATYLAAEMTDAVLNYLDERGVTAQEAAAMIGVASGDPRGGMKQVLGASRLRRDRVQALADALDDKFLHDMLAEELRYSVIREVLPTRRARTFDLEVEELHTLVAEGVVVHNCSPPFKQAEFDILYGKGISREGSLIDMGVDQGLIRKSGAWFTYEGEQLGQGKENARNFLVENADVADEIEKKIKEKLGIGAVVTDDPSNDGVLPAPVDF

[4] = biological target: T2, Hexokinase HKDC1 (Homo sapiens, UniProt Q2TB90); test: inhibition of HKDC1 glucose phosphorylation – biochemical, W721R variant, dose response (AID 504729); assay type: functional
T2 sequence (Q2TB90 whole entry): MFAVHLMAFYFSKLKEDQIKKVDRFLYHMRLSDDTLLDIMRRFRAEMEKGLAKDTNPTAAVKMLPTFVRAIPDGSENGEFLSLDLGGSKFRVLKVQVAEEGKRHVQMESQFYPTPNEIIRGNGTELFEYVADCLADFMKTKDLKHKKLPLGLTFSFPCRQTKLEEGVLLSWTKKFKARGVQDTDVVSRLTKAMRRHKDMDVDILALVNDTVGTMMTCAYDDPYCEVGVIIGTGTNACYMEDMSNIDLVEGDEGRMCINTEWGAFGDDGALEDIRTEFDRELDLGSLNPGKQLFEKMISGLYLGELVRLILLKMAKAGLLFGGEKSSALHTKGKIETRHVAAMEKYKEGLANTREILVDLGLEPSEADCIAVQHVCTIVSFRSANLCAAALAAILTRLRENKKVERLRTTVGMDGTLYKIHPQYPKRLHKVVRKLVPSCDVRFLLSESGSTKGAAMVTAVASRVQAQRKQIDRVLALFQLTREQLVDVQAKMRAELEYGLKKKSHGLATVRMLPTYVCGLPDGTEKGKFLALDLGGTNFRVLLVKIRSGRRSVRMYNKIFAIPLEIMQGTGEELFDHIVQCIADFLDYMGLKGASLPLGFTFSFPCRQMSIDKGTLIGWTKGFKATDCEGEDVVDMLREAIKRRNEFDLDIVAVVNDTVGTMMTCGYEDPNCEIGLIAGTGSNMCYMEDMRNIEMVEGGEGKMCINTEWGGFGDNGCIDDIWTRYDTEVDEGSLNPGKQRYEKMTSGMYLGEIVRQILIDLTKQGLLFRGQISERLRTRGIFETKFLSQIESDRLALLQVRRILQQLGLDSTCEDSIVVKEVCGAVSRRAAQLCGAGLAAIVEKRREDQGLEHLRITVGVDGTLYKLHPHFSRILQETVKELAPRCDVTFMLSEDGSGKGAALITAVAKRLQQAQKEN

[5] = microbe, parasite or virus in culture; assay type: functional; details: Mycobacterium tuberculosis
[6] = biological target: T3, Replicative DNA helicase DnaB (Mycobacterium tuberculosis, UniProt P9WMR3); test: DnaB intein splicing inhibitors, dose response, biochemical, cell-free fluorescence (AID 449749); assay type: functional
T3 sequence (P9WMR3 whole entry): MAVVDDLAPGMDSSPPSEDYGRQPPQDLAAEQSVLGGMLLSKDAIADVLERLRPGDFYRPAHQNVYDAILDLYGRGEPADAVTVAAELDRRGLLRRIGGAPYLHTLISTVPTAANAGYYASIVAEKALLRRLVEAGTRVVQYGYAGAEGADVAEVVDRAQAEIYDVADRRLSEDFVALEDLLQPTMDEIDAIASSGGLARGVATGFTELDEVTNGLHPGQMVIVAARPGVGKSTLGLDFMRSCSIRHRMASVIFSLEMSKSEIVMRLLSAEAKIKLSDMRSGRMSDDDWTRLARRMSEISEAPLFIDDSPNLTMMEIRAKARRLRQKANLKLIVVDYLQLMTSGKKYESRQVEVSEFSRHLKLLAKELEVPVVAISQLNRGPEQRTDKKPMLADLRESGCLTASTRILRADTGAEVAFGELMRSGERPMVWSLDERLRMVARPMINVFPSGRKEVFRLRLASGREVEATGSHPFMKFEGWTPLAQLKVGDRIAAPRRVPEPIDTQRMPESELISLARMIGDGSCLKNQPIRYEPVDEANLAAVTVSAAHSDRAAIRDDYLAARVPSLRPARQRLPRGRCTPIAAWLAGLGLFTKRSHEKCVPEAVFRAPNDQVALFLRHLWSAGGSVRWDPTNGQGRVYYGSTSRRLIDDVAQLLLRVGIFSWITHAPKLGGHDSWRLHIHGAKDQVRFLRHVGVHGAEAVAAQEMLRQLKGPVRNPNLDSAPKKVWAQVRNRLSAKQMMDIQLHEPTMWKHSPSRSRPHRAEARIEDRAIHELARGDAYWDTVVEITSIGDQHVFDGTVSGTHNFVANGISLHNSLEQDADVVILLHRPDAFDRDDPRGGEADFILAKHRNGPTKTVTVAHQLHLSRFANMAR

[7] = non-specific 3'UTR reporter inhibition in Clone20-Shn3RL – cell-based, Renilla luciferase, cherry-picked, counter-screen for Shn3 inhibitor project, dose response (AID 624133); assay type: functional
[8] = tested on: HEK293; test: cells; assay type: functional, cell-based; details: Homo sapiens
[9] = tested on: HEK293; test: NOD2 signaling inhibitors in MDP-stimulated cells, cell-based, uHTS, luminescence (AID 2001); assay type: functional; details: Homo sapiens
[10] = tested on: HEK293; test: inhibition of NOD1-driven NF-kB reporter – cell-based, luminescence, uHTS, primary screen (AID 1578); assay type: functional; details: Homo sapiens
[11] = tested on: HEK293; test: cells; assay type: functional, cell-based; details: Homo sapiens; remark: listed apart in the source
[12] = biological target: Nucleotide-binding oligomerization domain-containing protein 2 (Homo sapiens, UniProt Q9HC29); test: inhibition of NOD2-driven NF-kB reporter – cell-based, luminescence, uHTS, HEK293 (AID 1566); assay type: functional
[13] = tested on: HEK293; test: cells; assay type: functional, cell-based; details: Homo sapiens; remark: listed apart in the source
[14] = reduction of Shn3 3'UTR-driven luciferase in osteoblasts – cell-based, Clone20 osteoblasts, firefly luciferase, cherry-picked, dose response (AID 624132); assay type: functional;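 also: firefly luciferase luminescence from reporter carrying the Shn3 3'UTR in osteoblasts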
[15] = growth inhibition of yeast DHODH-expressing 3D7 parasites – SYBR Green, dry powder samples, dose response (AID 1159570); assay type: functional, cell-based;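 also: parasite growth measured after 72 hours of compound exposure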
[16] = Dd2 malaria parasite growth inhibition potency – SYBR Green, dry powder samples, dose response (AID 1159566); assay type: functional, cell-based;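 also: potency for growth inhibition with lower SYBR green DNA signal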
[17] = P. falciparum Dd2 growth inhibitors, dose response, SYBR Green, cherry-picked samples (AID 1159567); assay type: functional, cell-based
[18] = growth inhibition of PfATP4-mutant resistant parasites – NITD609-resistant line, SYBR Green, dry powder, dose response (AID 1159571); assay type: functional, cell-based;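 also: parasites synchronized at ring stage by sorbitol before testing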
[19] = OVCAR-3 cell viability loss – plate reader, dry powder samples, PAX8 inhibitor project, dose response (AID 743044); assay type: functional, cell-based
[20] = HIV-1 AD8 envelope cell-cell fusion blockers – cherry-pick, dose response (AID 652062); assay type: functional, cell-based;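 also: luciferase signal from cell-cell fusion driven by HIV-1 clade B AD8 Env; potency is for inhibitors of fusion seen as a drop in luminescence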
[21] = IGROV1 cell killing – plate reader, dry powder samples, PAX8 inhibitor project, dose response (AID 743043); assay type: functional, cell-based; details: IGROV-1
[22] = biological target: Paired box protein Pax-8 (Homo sapiens, UniProt Q06710); test: PAX8 transcriptional activity inhibition in RMG-I – RMG-I cells, luciferase, cherry-pick, dose response (AID 687027); assay type: functional, cell-based;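 also: luciferase reporter driven by Pax8 target thyroperoxidase promoter measured by SteadyGlo luminescence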
[23] = blockers of HIV-1 envelope-mediated cell-cell fusion – cherry-pick, dose response (AID 652057); assay type: functional, cell-based
[24] = OVCAR8 cell viability loss – plate reader, dry powder samples, PAX8 project, dose response (AID 743197); assay type: functional, cell-based; details: OVCAR-8

Sequence of Paired box protein Pax-8 (Q06710 whole entry, the tested form may be a part): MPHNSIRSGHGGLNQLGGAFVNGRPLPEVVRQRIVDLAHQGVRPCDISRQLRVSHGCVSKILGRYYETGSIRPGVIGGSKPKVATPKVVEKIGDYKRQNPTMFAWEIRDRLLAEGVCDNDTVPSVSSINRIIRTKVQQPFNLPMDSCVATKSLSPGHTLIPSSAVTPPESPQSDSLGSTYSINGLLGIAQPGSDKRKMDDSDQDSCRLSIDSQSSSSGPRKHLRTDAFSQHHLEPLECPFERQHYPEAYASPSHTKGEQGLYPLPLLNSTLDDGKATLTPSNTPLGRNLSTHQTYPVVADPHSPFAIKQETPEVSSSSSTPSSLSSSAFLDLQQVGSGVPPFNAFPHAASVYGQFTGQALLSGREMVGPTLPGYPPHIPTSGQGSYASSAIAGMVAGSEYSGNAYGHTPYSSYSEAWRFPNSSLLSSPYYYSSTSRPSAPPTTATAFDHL
Sequence of Nucleotide-binding oligomerization domain-containing protein 2 (Q9HC29 whole entry, the tested form may be a part): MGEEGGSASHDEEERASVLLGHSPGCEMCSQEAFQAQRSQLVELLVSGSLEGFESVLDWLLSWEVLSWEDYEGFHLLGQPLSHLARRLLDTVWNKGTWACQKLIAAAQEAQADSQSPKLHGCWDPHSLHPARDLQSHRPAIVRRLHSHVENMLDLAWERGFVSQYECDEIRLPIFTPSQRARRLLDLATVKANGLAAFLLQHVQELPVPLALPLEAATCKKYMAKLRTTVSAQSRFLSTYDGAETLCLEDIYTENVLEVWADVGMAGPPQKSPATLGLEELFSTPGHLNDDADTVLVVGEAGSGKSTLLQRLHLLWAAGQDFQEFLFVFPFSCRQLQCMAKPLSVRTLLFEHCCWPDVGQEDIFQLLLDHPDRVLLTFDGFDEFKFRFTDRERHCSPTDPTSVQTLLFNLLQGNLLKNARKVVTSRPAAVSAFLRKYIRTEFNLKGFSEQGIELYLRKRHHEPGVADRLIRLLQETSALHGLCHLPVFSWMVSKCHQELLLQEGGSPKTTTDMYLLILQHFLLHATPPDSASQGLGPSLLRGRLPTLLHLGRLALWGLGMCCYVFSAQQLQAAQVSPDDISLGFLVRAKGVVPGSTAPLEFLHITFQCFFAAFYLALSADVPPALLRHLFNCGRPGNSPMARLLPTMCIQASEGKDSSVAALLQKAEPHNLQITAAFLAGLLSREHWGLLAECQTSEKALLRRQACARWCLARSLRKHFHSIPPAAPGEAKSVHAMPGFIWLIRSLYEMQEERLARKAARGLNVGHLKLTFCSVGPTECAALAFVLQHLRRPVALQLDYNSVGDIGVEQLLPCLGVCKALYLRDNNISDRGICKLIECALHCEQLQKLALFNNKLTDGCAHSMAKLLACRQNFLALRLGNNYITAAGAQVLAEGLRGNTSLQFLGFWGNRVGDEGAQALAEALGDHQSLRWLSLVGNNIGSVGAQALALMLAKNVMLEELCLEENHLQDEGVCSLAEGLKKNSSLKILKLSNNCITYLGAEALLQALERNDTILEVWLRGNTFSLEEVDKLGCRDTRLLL

## O=C1c2ccccc2-c2onc3ccc(Oc4ccccc4)c1c23
[1]
  EC50: 6.21 µM (active)
[2]
  EC50: 6.7 µM (active)
[3]
  EC50: 0.452 µM (active)
[4]
  IC50: 70.7 µM (inactive)
[5]
  CC50: 9.25 µM (active)
[6]
  AC50: 1.38 µM (active)

## COc1cc(C2c3c([nH]c(=O)[nH]c3=O)Nc3ccc4ccccc4c32)cc(OC)c1OC (stereo not given)
[4]
  IC50: 15.2 µM (active)

## COc1cc(OC)c(OC)cc1/C=C1\CC(C)C/C(=C\c2cc(OC)c(OC)cc2OC)C1=O (stereo not given)
[7]
  AC50: 5.08 µM (active)
[8]
  IC50: 5.7 µM (active)
[9]
  IC50: 6.92 µM (active)
[10]
  EC50: 6.38 µM (active)
[11]
  IC50: > 20 µM (inactive)
[12]
  EC50: 7.31 µM (active)
[13]
  IC50: 15.7 µM (active)
[14]
  AC50: 3.22 µM (active)

## COc1ccc(S(=O)(=O)Nc2cccc3c2O[C@H](CN(C)Cc2ccc(-c4ccccc4)cc2)[C@@H](C)CN([C@H](C)CO)C3=O)cc1
[15]
  AC50: 1.02 µM (active)
[16]
  AC50: 0.587 µM (active)
[17]
  AC50: 0.955 µM (active)
[18]
  AC50: 0.696 µM (active)

## Cc1noc(C)c1S(=O)(=O)Nc1ccc2c(c1)CC(=O)N([C@@H](C)CO)C[C@@H](C)[C@H](CN(C)Cc1ccc(Cl)c(Cl)c1)O2
[19]
  AC50: 41.1 µM (active)
[20]
  AC50: 1.42 µM (active)
[21]
  AC50: 12.6 µM (active)
[22]
  AC50: 1.19 µM (active)
[23]
  AC50: 10.9 µM (active)
[24]
  AC50: 21.1 µM (active)

## C[C@H](CO)N1C[C@H](C)[C@@H](CN(C)Cc2ccc(-c3ccccc3)cc2)Oc2ccc(NS(=O)(=O)c3ccc(F)cc3)cc2CC1=O
[19]
  AC50: 29.7 µM (active)
[21]
  AC50: 27.8 µM (active)
[22]
  AC50: 8.82 µM (active)
[24]
  AC50: 55.8 µM (active)

## OC[C@H]1[C@H](c2ccccc2)C2(CN(Cc3ccccc3F)C2)N1Cc1ccccc1F
[15]
  AC50: 1.1 µM (active)
[16]
  AC50: 0.542 µM (active)
[18]
  AC50: 1.15 µM (active)

## C[C@H](CO)N1C[C@H](C)[C@@H](CN(C)S(=O)(=O)c2ccc(C(F)(F)F)cc2)OCc2ccccc2-c2c(n(C)c3ccccc23)C1=O
[15]
  AC50: 0.777 µM (active)
[16]
  AC50: 0.599 µM (active)
[17]
  AC50: 0.95 µM (active)
[18]
  AC50: 0.885 µM (active)

## CCCC(=O)N1CC2(C1)CN(S(=O)(=O)c1ccc(C)cc1)[C@@H](CO)c1[nH]c3cc(OC)ccc3c12
[15]
  AC50: 3.18 µM (active)
[16]
  AC50: 1.65 µM (active)
[17]
  AC50: 2.14 µM (active)
[18]
  AC50: 1.67 µM (active)

From ChEMBL document CHEMBL1201862, “PubChem BioAssay data set” (2004)
